What was measured:
[1] = test system: SHSY-5Y cells; assay: 14C-choline incorporation into phospholipids in SHSY-5Y cells; assay type: cell-based, human; conditions: for Phospholipid synthesis enhanced: 10 μM fatty acid, 18 hr, FIG. 3A
Method: SHSY-5Y cells were grown to near confluency in DMEM+10% FBS in 35 mm dishes. Cells were incubated for 18 hr in serum-free DMEM+1% FBS containing 30 μM choline+/−10 μM of DHA, arachidonic acid, or palmitic acid. Cells were then labeled, and labeled phospholipids were quantified as described for Example 1.
DHA was dissolved in ethanol to a […] concentration and frozen in 10 microliter aliquots at −80° C. For each experiment, one aliquot was diluted in ethanol to 10 micromolar; the volume giving the desired final solution in incubation medium was mixed with an equal volume of BSA solution (1 gm/ml).
The effect of omega-6 fatty acids on phospholipid synthesis was next examined in SHSY-5Y cells, a human neuroblastoma cell line. In this case, phospholipid synthesis was enhanced by arachidonic acid, an omega-6 fatty acid, but not by DHA or palmitic acid (FIG. 3A).
The effect of arachidonic acid on phospholipid synthesis in SHSY-5Y cells was further characterized as described for omega-3 fatty acids and PC-12 cells in Example 2.

[2] = test system: brain phospholipid levels; assay: Brain phospholipid levels in gerbils given UMP diet and/or PUFA by gavage; assay type: in vivo, gerbil; conditions: for Brain phospholipid levels: Table 6
Method: (§1) Cells were homogenized in 100 volumes of ice-cold deionized water using a tissue degrader (Polytron PT 10-35, Kinematica AG, Switzerland); 1 ml of aliquots were then mixed with 3 ml of chloroform+methanol mixture (2:1 v/v) and vortexed vigorously for 30 seconds. After cooling for 1 h on ice, the mixture was mixed sequentially with 3 ml of chloroform+methanol mixture (2:1 v/v) and 1 ml of ice-cold deionized water. The mixture was vortexed vigorously and allowed to stand overnight in the cold room (18 h). The organic (lower) and aqueous (upper) phases of the mixtures were separated by centrifugation (10 min at 4° C.; 1000 g). An aliquot (2 ml) of the upper phase was used for determination of CDP-Choline (see below), and 0.1-0.4 ml aliquots of the lower phase were dried under vacuum for phospholipid analysis. Residues of 0.1 ml aliquots of the lower phase were assayed for total phospholipid content by measuring phosphorus. Residues of 0.4 ml aliquots of the lower phase were reconstituted in 40 μl methanol and subjected to thin-layer chromatography using silica G plates (Adsorbosil Plus-1®, Alltech), and a system consisting of chloroform/ethanol/triethylamine/water (30:34:30:8) as the mobile phase. Phospholipid standards were used to identify the corresponding bands under UV light after the plates were sprayed with 0.1% diphenylhexatriene in petroleum ether. Bands for individual phospholipid classes (PC, PE, SM, PS and PI) were scraped off the plates and extracted into 1 ml of methanol; dried under vacuum; and assayed for phosphorus content. Total phosphorus was determined by comparison with standard curves by using KH2PO4 run with each assay. To each sample was added 0.5 ml of 4.5% HclO4/27% H2SO4 and tubes were heated at 180° C. for 3 h. After cooling to room temperature, 5 ml of the color reagent (a 10:1 dilution of solutions containing 2.5 mg/ml ammonium molybdate, 8.2 mg/ml sodium acetate and 100 mg/ml ascorbic acid respectively) was added and the tubes were incubated for 2 h, 37° C. Absorbance was measured spectrophotometrically at 820 nm. Phospholipid mass was determined by multiplying the phosphorus content by 25.
Control standard diet (Table 4) consisted of Teklad Global 16% protein rodent diet (Harlan Teklad, Madison, Wis.), which contained 0.1% choline chloride (CC), corresponding to a daily dose of 50 mg/kg/day. UMP was provided as 0.5% UMP·2Na^+ weight/weight, added to the control diet, also prepared by Harlan Teklad, corresponding to 240 mg/kg/day UMP. DHA was administered as 300 mg/kg/day in 200 microliter (mcL)/day 5% Arabic Gum solution, while groups not receiving DHA were administered vehicle (5% Arabic Gum) alone. DHA was provided by Nu-Chek Prep (Elysian, Minn.) and UMP by Numico (Wagenigen, NL).
Gerbils were anesthetized with ketamine and xylazine (80 and 10 mg/kg bwt, i.p.) and sacrificed by immersing the head into liquid nitrogen for 2 min, followed by decapitation. Brains were immediately and quickly (30 seconds) removed using a bone rongeur and stored at −80° C.
Frozen brain hemispheres were weighed and homogenized in 100 volumes of ice-cold deionized water using a tissue degrader (Polytron PT 10-35, Kinematica AG, Switzerland), then analyzed as described in Example 1.
Protein in whole brain homogenate sample was measured for using bicinchoninic acid reagent (Perkin Elmer, Norwalk, Conn., USA). DNA was measured by measuring 460 nm emission of samples on a fluorometer in the presence of bisbenzimidizole, a fluorescent dye known as Hoechst H 33258 (American Hoechst Corporation), which has an excitation maximum at 356 nm and an emission maximum of 458 when bound to DNA.
Male gerbils weighing 80-100 g were divided into 4 groups of 8 gerbils and administered the supplements depicted in Table 1: […]

[3] = test system: PC-12 cells; assay: 14C-choline incorporation into phospholipids in PC-12 cells; assay type: cell-based; conditions: 5 μM fatty acid, 18 hr pre-incubation, then 14C-choline 2.5 hr; FIG. 1
Method: PC-12 cells were maintained in Dulbecco's modified Eagle's medium (DMEM)+10% fetal bovine serum (FBS). For experiments, cells were grown in quintuplicate collagen-coated 35 millimeter (mm) dishes. Cells were incubated for 18 hours (hr) in serum-free DMEM containing 28 μM choline+/−5 micromolar (μM) of DHA, oleic acid, or palmitic acid. Cells were then labeled for 2.5 hr with 0.5 microcurie (μCi)/ml ^14C-choline in serum-free DMEM containing 10-micromolar (μM) choline.
as §1, with “To each sample was added 0.5 ml of 4.5% HclO4/27% H2SO4 and tubes were heated at 180° C. for 3 h. After cooling to room temperature, 5 ml of the color reagent (a 10:1 dilution of solutions containing 2.5 mg/ml ammonium molybdate, 8.2 mg/ml sodium acetate and 100 mg/ml ascorbic acid respectively) was added and the tubes were incubated for 2 h, 37° C.” left out
In order to assess the effect of omega-3 fatty acids on phospholipid synthesis, PC-12 cells were incubated with ^14C-labeled choline, following an 18-hour pre-incubation with or without DHA. Incorporation of label into phospholipids was then measured. […]
To further characterize the stimulation of phospholipid synthesis by omega-3 fatty acids, PC-12 cells were pre-treated with different doses of DHA and exposed to labeled choline as described in Example 1, then incorporation of ^14C-label into phospholipids was measured. […]

[4] = test system: brain CDP-choline levels; assay: Brain CDP-choline and CDP-ethanolamine levels in gerbils; assay type: in vivo, gerbil; conditions: 28 days
Text: FIGS. 5A and 5B. FIG. 5A illustrates the effect Effects of DHA on brain CDP-choline levels (FIG. 5A) and while FIG. 5B illustrates the effect of DHA on brain CDP-ethanolamine levels (FIG. 5B). Groups of 8 gerbils received either a control or a UMP-containing diet, and, by gavage, DHA (in a vehicle of 5% gum Arabic solution) or 5% gum Arabic solution alone for 28 days. On the 29th day brains were harvested and assayed for CDP-choline. Data are presented as means±SEM. Statistical analysis was performed using one- or two-way ANOVA followed by Tukey test. a: P<0.05 when compared with the values for control diet plus vehicle group; b: P<0.05 when compared with values for UMP diet plus vehicle group.
Aliquots (2 ml) of the upper (aqueous) phase were dried under a vacuum, reconstituted, and injected into an HPLC. The dried samples were reconstituted in 100-200 μl water and were analyzed by HPLC on an anion exchange column (Alltech Hypersil APS-2, […], 250×4.6 mm). CDP-choline was eluted with a linear gradient of buffers A (H3PO4, 1.75 mM, pH 2.9) and B (NaH2PO2, 500 mM, pH 4.5) from 0 to 100% B over period of 30 min. With this system, CDP-choline was resolved from closely co-eluting substances such as UMP in an isocratic system over a period of 40 min. The retention time for CDP-choline was 9.5 min. The column was washed with buffer B at the end of each experiment and every several days to remove retained nucleotides. Individual nucleotide peaks were detected by UV absorption at 280 nm and were identified by comparison with the positions of authentic standards, as well as by the addition of nucleotide standards to samples.
To determine the effect of PUFA administration on CDP-choline levels, brain CDP-choline levels were measured in the animals from the previous Example. Administration of DHA and/or UMP decreased CDP-choline levels (FIG. 5A) and CDP-ethanolamine levels (FIG. 5B). DHA reduced CDP-choline levels by 26% (compared with those receiving just the control diet and DHA's vehicle), and in UMP-treated gerbils by 21% (compared with those receiving UMP-containing diet and DHA's vehicle) (both P<0.05).

[5] = test system: brain phospholipid levels; assay: Brain phospholipid levels in rat pups of treated pregnant and nursing mothers; assay type: in vivo; conditions: rat pups, postnatal day 20, mean
Method: In another study, pregnant rats were allowed to consume ad libitum, for 10 days before parturition and 20 days while nursing, either a choline-containing control diet or this diet supplemented with uridine as UMP; half of each group also received DHA or its diluent daily, by gavage. Pups were then sacrificed and brain slices were examined to determine numbers of hippocampal dendritic spines.
Pregnant and nursing rats were administered DHA and/or uridine as described in Example 9. At 20 days post-birth, rats were sacrificed and brain samples were obtained and assayed for phospholipids. Administration of DHA alone increased brain PC, PI, PE, and sphingomyelin (SM) per cell (DNA) by 36, 166, 38, and 78%, respectively. UMP markedly amplified the effects of DHA to 66, 210, 68, and 99% of control, respectively (Table 8). These increases were greater than those observed in adult animals. Similar results were obtained when normalizing to protein (Table 9). Thus, administration of DHA and/or uridine to pregnant and nursing mothers is able to increase phospholipid levels in the offspring.

[6] = Table 9, nmol per microgram DNA

CCCCCC=CCC=CCC=CCC=CCCCC(=O)O [AA, 5,8,11,14-eicosatetraenoic acid]
Phospholipid synthesis enhanced [1]: enhanced | Synthesis of total phospholipids, PC, and phosphatidylethanolamine ([1]; range of dosages, FIG. 3B): increased | Brain phospholipid levels ([2]; 3 weeks): increased

CCCCCCCC/C=C\CCCCCCCC(=O)O [oleic acid, reference compound]
Phosphatidylcholine (PC) synthesis significantly increased (incorporation of 14C label into PC) [3]: not

O=c1ccn([C@@H]2O[C@H](COP(=O)(O)O)[C@@H](O)[C@H]2O)c(=O)[nH]1 [UMP, uridine monophosphate]
Effects on brain phospholipids after 1 week of treatment ([2]; 1 week): no significant effects | Increases in brain phospholipids ([2]; 3 weeks): smaller but still significant increases | Increase in levels of total phospholipids over control group ([2]; 4 weeks, gerbil brain): 5% | Total PtdCho ([2]; Table 5 part A): 171 ± 8 nmol/mg prt | Total PtdEtn ([2]; Table 5 part A): 84 ± 8 nmol/mg prt | Total PtdSer ([2]; Table 5 part A): 35 ± 3 nmol/mg prt | Total Ptdins ([2]; Table 5 part A): 31 ± 2 nmol/mg prt | Total PtdEtn ([2]; Table 5 part B, One Week): 63 ± 4 nmol/mg prt | Total PtdSer ([2]; Table 5 part B, One Week): 39 ± 1 nmol/mg prt | Total Ptdins ([2]; Table 5 part B, One Week): 20 ± 4 nmol/mg prt | Total PtdEtn ([2]; Table 5 part B, Three Weeks): 87 ± 4 nmol/mg prt | Total PtdSer ([2]; Table 5 part B, Three Weeks): 42 ± 2 nmol/mg prt | Total Ptdins ([2]; Table 5 part B, Three Weeks): 25 ± 1 nmol/mg prt | CDP-choline levels (FIG. 5A) [4]: decreased | CDP-ethanolamine levels (FIG. 5B) [4]: decreased | PC ([5]; Table 8, nmol per mg protein): 95.3 nmol/mg protein | PE ([5]; Table 8, nmol per mg protein): 75.6 nmol/mg protein | PI ([5]; Table 8, nmol per mg protein): 3.92 nmol/mg protein | SM ([5]; Table 8, nmol per mg protein): 5.27 nmol/mg protein | Total Phospholipids ([5]; Table 8, nmol per mg protein): 282.2 nmol/mg protein | PC [5, 6]: 8.11 nmol/microgram DNA | PE [5, 6]: 6.56 nmol/microgram DNA | PI [5, 6]: 0.352 nmol/microgram DNA | SM [5, 6]: 0.458 nmol/microgram DNA | Total Phospholipids [5, 6]: 24.78 nmol/microgram DNA

CCCCCCCCCCCCCCCC(=O)O [palmitic acid, reference compound]
Phosphatidylcholine (PC) synthesis significantly increased (incorporation of 14C label into PC) [3]: not | Phospholipid synthesis enhanced [1]: not

CCC=CCC=CCC=CCC=CCC=CCCCC(=O)O [EPA, 5,8,11,14,17-eicosapentaenoic acid]
Brain phospholipid levels ([2]; 3 weeks): increased

Source: patent publication US10736912B2, “Compositions containing PUFA and/or uridine and methods of use thereof” (MASSACHUSETTS INSTITUE OF TECHNOLOGY, priority 2005, dated 2020)
